Test results taken from the supplement of paper PMC11424490.

Tests used:
[1] = tested on: NCI-H2122; experiment: relative IC50 of cell viability (CellTiter-Glo); higher = less potent
Summary of the method: (§1)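 The NCI-H2122, SW837 and NCI-H358 cell lines were plated in 384-well format at 800, 500 and 500 cells/well respectively, in 60 µl. After a 24 h wait, single compounds were applied in dose series by acoustic dispensing, and plates were incubated 72 h, or 144 h in the case of SW837. Readout was CellTiter-Glo luminescence on an EnVision reader following 15 min shaking, normalised to DMSO controls. Both the relative IC50 (a mean over replicates) and the lower plateau derive from a four-parameter nonlinear fit.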

[2] = tested on: NCI-H358; experiment: as above
Summary of the method: as §1

[3] = tested on: SW837; experiment: as above
Summary of the method: as §1

[4] = tested on: NCI-H2122; experiment: fitted bottom plateau of viability curve, % of DMSO control; higher = less maximal inhibition; extreme values may be limits of the assay
Summary of the method: as §1

[5] = tested on: NCI-H358; experiment: as above
Summary of the method: as §1

[6] = tested on: SW837; experiment: as above
Summary of the method: as §1

Compound	relative IC50 of cell viability [1] [nM]	relative IC50 of cell viability [2] [nM]	relative IC50 of cell viability [3] [nM]	fitted bottom plateau of viability curve [4] [%]	fitted bottom plateau of viability curve [5] [%]	fitted bottom plateau of viability curve [6] [%]
CNS(=O)(=O)Nc1nccc(Cc2c(C)c3ccc(Oc4ncccn4)cc3oc2=O)c1F (top concentration tested 10000 nM)	130	513	1570	1.94	2.19	18.8
COc1ncc(-c2ccc3nccc(-c4ccnnc4)c3c2)cc1NS(=O)(=O)c1ccc(F)cc1F (top concentration tested 50000 nM)	43.6	32.3	677	2.3	0.391	3.09
C[C@@H]1CN(CC(=O)Nc2ccc3c(c2)Cc2cccc(-c4cc(=O)cc(N5CCOCC5)o4)c2S3)C[C@H](C)O1 (top concentration tested 50000 nM)	11800	9010	39200	31	8.33	0
Cc1cc(C)c(CNC(=O)c2cc(-c3ccc(N4CCNCC4)nc3)cc3c2c(C)cn3C2CCCC2)c(=O)[nH]1 (top concentration tested 50000 nM)	17400	11500	10500	24.3	0.467	0.31
C=CC(=O)N1CCN(c2nc(=O)n(-c3c(C)ccnc3C(C)C)c3nc(-c4c(O)cccc4F)c(F)cc23)[C@@H](C)C1 [AMG510 / Sotorasib] (top concentration tested 1000 nM)	43	20.4	57.7	12	2.09	39.6
CCN1CCN(Cc2ccc(Nc3ncc(F)c(-c4cc(F)c5nc(C)n(C(C)C)c5c4)n3)nc2)CC1 [Abemaciclib] (top concentration tested 10000 nM)	960	297	5140	35.8	0	0
CN(C)C/C=C/C(=O)Nc1cc2c(Nc3ccc(F)c(Cl)c3)ncnc2cc1O[C@H]1CCOC1 [Afatinib] (top concentration tested 10000 nM)	1220	176	5660	2.68	0	0
Nc1cc(C(F)(F)F)c(-c2cc(N3CCOCC3)nc(N3CCOCC3)n2)cn1 [BKM120] (top concentration tested 10000 nM)	921	1310	1790	3.49	7.46	20.6
COC(=O)[C@]12CCC(C)(C)C[C@H]1[C@H]1C(=O)C=C3[C@@]4(C)C=C(C#N)C(=O)C(C)(C)[C@@H]4CC[C@@]3(C)[C@]1(C)CC2 [Bardoxolone methyl] (top concentration tested 1000 nM)	319	113	200	38.7	0.645	0
O=C(/C=C/c1cccc(S(=O)(=O)Nc2ccccc2)c1)NO [Belinostat] (top concentration tested 10000 nM)	274	491	1050	1.64	0.339	0.0148
Cc1c(N)nc([C@H](CC(N)=O)NC[C@H](N)C(N)=O)nc1C(=O)N[C@H](C(=O)N[C@H](C)[C@@H](O)[C@H](C)C(=O)N[C@H](C(=O)NCCc1nc(-c2nc(C(=O)NCCC[S+](C)C)cs2)cs1)[C@@H](C)O)[C@@H](OC1OC(CO)C(O)C(O)C1OC1OC(CO)C(O)C(OC(N)=O)C1O)c1cnc[nH]1 (some centres not stated) [Bleomycin] (top concentration tested 10000 nM)	1200	1380	438	45.4	12.7	4.05
CC(C)C[C@H](NC(=O)[C@H](Cc1ccccc1)NC(=O)c1cnccn1)B(O)O [Bortezomib] (top concentration tested 999.9 nM)	16.5	9.81	5.91	9.55	0.755	0.446
COc1cc(Nc2c(C#N)cnc3cc(OCCCN4CCN(C)CC4)c(OC)cc23)c(Cl)cc1Cl [Bosutinib] (top concentration tested 10000 nM)	3830	1510	4350	23.5	25.5	12.1
COc1cccc2c1C(=O)c1c(O)c3c(c(O)c1C2=O)C[C@@](O)(C(C)=O)C[C@@H]3O[C@H]1C[C@H](N)[C@H](O)[C@H](C)O1 [Daunorubicin] (top concentration tested 1000 nM)	120	27.6	111	17.2	1.56	0.5
COc1cc(Nc2ncc(F)c(Nc3ccc4c(n3)N(COP(=O)(O)O)C(=O)C(C)(C)O4)n2)cc(OC)c1OC [Fostamatinib] (top concentration tested 9999.9 nM)	8750	2060	1680	37.4	0	47.6
CCS(=O)(=O)Nc1ccc2c(c1)/C(=C(/Nc1ccc(CN3CCCCC3)cc1)c1ccccc1)C(=O)N2 [Hesperadin] (top concentration tested 10000 nM)	19	43.7	366	5.85	0	0
C=C(F)C(=O)N1CCN(c2nc(OC[C@@H]3CCCN3C)nc3c2CCN(c2cccc4cccc(Cl)c24)C3)C[C@@H]1CC#N [MRTX849 / Adagrasib] (top concentration tested 999.97 nM)	39.7	25.2	304	7.33	1.24	0.0244
O=C1c2c(O)ccc(O)c2C(=O)c2c(NCCNCCO)ccc(NCCNCCO)c21 [Mitoxantrone] (top concentration tested 999.98 nM)	62.4	19.9	79.2	28.7	7.11	0
C=CC(=O)Nc1cc(Nc2nccc(-c3cn(C)c4ccccc34)n2)c(OC)cc1N(C)CCN(C)C [Osimertinib] (top concentration tested 10000 nM)	2560	1010	2210	0.698	0	11.4
Cc1ccc(C(=O)Nc2ccc(CN3CCN(C)CC3)c(C(F)(F)F)c2)cc1C#Cc1cnc2cccnn12 [Ponatinib] (top concentration tested 10000 nM)	887	2290	1250	0.652	0.0743	0
CCc1nc(N)nc(N)c1-c1ccc(Cl)cc1 [Pyrimethamine] (top concentration tested 50000 nM)	3430	8340	8070	28.9	45.5	39
CCc1c2c(nc3ccc(O)cc13)-c1cc3c(c(=O)n1C2)COC(=O)[C@]3(O)CC [SN-38] (top concentration tested 99.894 nM)	6.15	6.48	10.4	30.2	7.46	2.39
